The values below are quoted from earlier work in publication PMC13363528, “Structure–Activity Relationships of Pyrrolyl-Containing Diketo Acid and Non-Diketo Acid Derivatives as Inhibitors of SARS-CoV-2 nsp13-Associated Activities” (Molecules, 2026).

In the data set the target is SARS-CoV-2 nsp13 (Severe acute respiratory syndrome coronavirus 2, UniProt P0DTD1). The settings on record: without BSA/TCEP; read-out: IC50 Unwinding.

On to `O=c1c(O)c(-c2ccc(O)cc2)oc2cc(O)cc(O)c12` [Kaempferol], for which the IC50 was 760 ± 160 nM.

For orientation: IC50 means the point on the concentration scale where inhibition reaches its midpoint.
